Measured values reported in PMC6497469 (Infection and Drug Resistance, 2019).
Values belong to the compound of their own block, whether it stands above or below them.

Experiments:
[1] = target: PA0847 PAS-GGDEF dual domains (Pseudomonas aeruginosa PAO1); experiment: SEC
PA0847 [2] = target: T1, PA0847 (Pseudomonas aeruginosa, UniProt Q9I594); experiment: binding of c-di-GMP to purified PAS-GGDEF
T1 sequence (Q9I594 440-735 limits assumed): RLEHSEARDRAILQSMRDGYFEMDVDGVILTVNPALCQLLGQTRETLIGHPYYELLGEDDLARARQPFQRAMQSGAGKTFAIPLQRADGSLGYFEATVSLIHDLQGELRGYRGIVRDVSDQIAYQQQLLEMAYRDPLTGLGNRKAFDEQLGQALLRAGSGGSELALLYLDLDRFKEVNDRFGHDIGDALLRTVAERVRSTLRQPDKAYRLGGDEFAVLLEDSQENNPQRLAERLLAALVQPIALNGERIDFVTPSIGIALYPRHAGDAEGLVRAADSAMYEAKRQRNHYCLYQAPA

PA0847 [3] = target: T1, PA0847; experiment: titration of GTPγS to purified PAS-GGDEF; type: binding

Compound: PA0847 PAS-GGDEF dual domains (domain or fragment)
stoichiometry N [1]: 2

Kd (PA0847 [2]): ~59 µM
Compound: Nc1nc2c(ncn2[C@@H]2O[C@@H]3CO[P@](=O)(O)O[C@H]4[C@@H](O)[C@H](n5cnc6c(=O)[nH]c(N)nc65)O[C@@H]4CO[P@](=O)(O)O[C@H]3[C@H]2O)c(=O)[nH]1 [c-di-GMP]

Kd (PA0847 [3]): 15.3 ± 1.3 µM
Compound: Nc1nc2c(ncn2[C@@H]2O[C@H](COP(=O)(O)OP(=O)(O)OP(O)(O)=S)[C@@H](O)[C@H]2O)c(=O)[nH]1 [GTPγS]
